In the NIST ThermoML archive (doi:10.1016/j.fluid.2006.10.012):
Numbers after ± are expanded uncertainties.

Assay: osmotic coefficient (dimensionless); mn = molality of the nth substance listed, in mol/kg
Conditions: Liquid, isopiestic method

Structure (SMILES): CCC(N)C(=O)O (stereo not drawn) [(.+-.)-α-aminobutyric acid] + O
- osmotic coefficient (288.15 K, m1 = 0.2191): 0.9642 ± 0.0018
- osmotic coefficient (288.15 K, m1 = 0.2194): 0.9642 ± 0.0018
- osmotic coefficient (288.15 K, m1 = 0.3053): 0.9569 ± 0.0022
- osmotic coefficient (288.15 K, m1 = 0.3055): 0.9569 ± 0.0022
- osmotic coefficient (288.15 K, m1 = 0.5076): 0.9529 ± 0.0024
- osmotic coefficient (288.15 K, m1 = 0.5082): 0.953 ± 0.0024
- osmotic coefficient (288.15 K, m1 = 0.595): 0.9567 ± 0.0022
- osmotic coefficient (288.15 K, m1 = 0.596): 0.9567 ± 0.0022
- osmotic coefficient (288.15 K, m1 = 0.7815): 0.9748 ± 0.0013
- osmotic coefficient (288.15 K, m1 = 0.7821): 0.9749 ± 0.0013
- osmotic coefficient (288.15 K, m1 = 1.057): 1.025 ± 0.0012
- osmotic coefficient (288.15 K, m1 = 1.059): 1.025 ± 0.0013
- osmotic coefficient (293.15 K, m1 = 0.2031): 0.9894 ± 0.0005
- osmotic coefficient (293.15 K, m1 = 0.2034): 0.9894 ± 0.0005
- osmotic coefficient (293.15 K, m1 = 0.3484): 0.9811 ± 0.0009
- osmotic coefficient (293.15 K, m1 = 0.3492): 0.9811 ± 0.0009
- osmotic coefficient (293.15 K, m1 = 0.508): 0.9744 ± 0.0013
- osmotic coefficient (293.15 K, m1 = 0.5086): 0.9744 ± 0.0013
- osmotic coefficient (293.15 K, m1 = 0.8066): 0.9819 ± 0.0009
- osmotic coefficient (293.15 K, m1 = 0.8078): 0.982 ± 0.0009
- osmotic coefficient (293.15 K, m1 = 0.9443): 1.0001 ± 0.0001
- osmotic coefficient (293.15 K, m1 = 0.9453): 1.0003 ± 0.0001
- osmotic coefficient (293.15 K, m1 = 1.139): 1.048 ± 0.0024
- osmotic coefficient (293.15 K, m1 = 1.14): 1.049 ± 0.0024
- osmotic coefficient (298.15 K, m1 = 0.2217): 1.0067 ± 0.0003
- osmotic coefficient (298.15 K, m1 = 0.2219): 1.0058 ± 0.0003
- osmotic coefficient (298.15 K, m1 = 0.3106): 1.0103 ± 0.0005
- osmotic coefficient (298.15 K, m1 = 0.3109): 1.0093 ± 0.0005
- osmotic coefficient (298.15 K, m1 = 0.5105): 1.0168 ± 0.0008
- osmotic coefficient (298.15 K, m1 = 0.5108): 1.0163 ± 0.0008
- osmotic coefficient (298.15 K, m1 = 0.5636): 1.0164 ± 0.0008
- osmotic coefficient (298.15 K, m1 = 0.5637): 1.0162 ± 0.0008
- osmotic coefficient (298.15 K, m1 = 0.7428): 1.023 ± 0.0012
- osmotic coefficient (298.15 K, m1 = 0.7434): 1.023 ± 0.0011
- osmotic coefficient (298.15 K, m1 = 1.022): 1.036 ± 0.0018
- osmotic coefficient (298.15 K, m1 = 1.023): 1.036 ± 0.0018
- osmotic coefficient (303.15 K, m1 = 0.2054): 1.0072 ± 0.0004
- osmotic coefficient (303.15 K, m1 = 0.206): 1.0073 ± 0.0004
- osmotic coefficient (303.15 K, m1 = 0.3334): 1.0133 ± 0.0007
- osmotic coefficient (303.15 K, m1 = 0.3335): 1.0133 ± 0.0007
- osmotic coefficient (303.15 K, m1 = 0.5083): 1.0187 ± 0.0009
- osmotic coefficient (303.15 K, m1 = 0.5087): 1.0187 ± 0.0009
- osmotic coefficient (303.15 K, m1 = 0.7146): 1.025 ± 0.0012
- osmotic coefficient (303.15 K, m1 = 0.7157): 1.025 ± 0.0012
- osmotic coefficient (303.15 K, m1 = 0.8091): 1.029 ± 0.0015
- osmotic coefficient (303.15 K, m1 = 0.8092): 1.029 ± 0.0015
- osmotic coefficient (303.15 K, m1 = 1.03): 1.046 ± 0.0023
- osmotic coefficient (303.15 K, m1 = 1.031): 1.046 ± 0.0023

Structure (SMILES): NCC(=O)O [2-aminoacetic acid] + O
- osmotic coefficient (288.15 K, m1 = 0.2174): 0.9554 ± 0.0022
- osmotic coefficient (288.15 K, m1 = 0.2178): 0.9554 ± 0.0022
- osmotic coefficient (288.15 K, m1 = 0.3075): 0.946 ± 0.0027
- osmotic coefficient (288.15 K, m1 = 0.3078): 0.946 ± 0.0027
- osmotic coefficient (288.15 K, m1 = 0.5175): 0.9341 ± 0.0033
- osmotic coefficient (288.15 K, m1 = 0.5178): 0.934 ± 0.0033
- osmotic coefficient (288.15 K, m1 = 0.6241): 0.9302 ± 0.0035
- osmotic coefficient (288.15 K, m1 = 0.6251): 0.9302 ± 0.0035
- osmotic coefficient (288.15 K, m1 = 0.8647): 0.9219 ± 0.0039
- osmotic coefficient (288.15 K, m1 = 0.8654): 0.9219 ± 0.0039
- osmotic coefficient (288.15 K, m1 = 1.193): 0.9166 ± 0.0042
- osmotic coefficient (288.15 K, m1 = 1.194): 0.9166 ± 0.0042
- osmotic coefficient (293.15 K, m1 = 0.2074): 0.9705 ± 0.0015
- osmotic coefficient (293.15 K, m1 = 0.2076): 0.9705 ± 0.0015
- osmotic coefficient (293.15 K, m1 = 0.3572): 0.9556 ± 0.0022
- osmotic coefficient (293.15 K, m1 = 0.3577): 0.9555 ± 0.0022
- osmotic coefficient (293.15 K, m1 = 0.5277): 0.9428 ± 0.0029
- osmotic coefficient (293.15 K, m1 = 0.5284): 0.9428 ± 0.0029
- osmotic coefficient (293.15 K, m1 = 0.8498): 0.9282 ± 0.0036
- osmotic coefficient (293.15 K, m1 = 0.8508): 0.9282 ± 0.0036
- osmotic coefficient (293.15 K, m1 = 1.027): 0.924 ± 0.0038
- osmotic coefficient (293.15 K, m1 = 1.028): 0.924 ± 0.0038
- osmotic coefficient (293.15 K, m1 = 1.298): 0.9202 ± 0.004
- osmotic coefficient (293.15 K, m1 = 1.299): 0.9202 ± 0.004
- osmotic coefficient (298.15 K, m1 = 0.2274): 0.9815 ± 0.0009
- osmotic coefficient (298.15 K, m1 = 0.2276): 0.981 ± 0.001
- osmotic coefficient (298.15 K, m1 = 0.3213): 0.9767 ± 0.0012
- osmotic coefficient (298.15 K, m1 = 0.3214): 0.9764 ± 0.0012
- osmotic coefficient (298.15 K, m1 = 0.5417): 0.9583 ± 0.0021
- osmotic coefficient (298.15 K, m1 = 0.7869): 0.9461 ± 0.0027
- osmotic coefficient (298.15 K, m1 = 0.7878): 0.945 ± 0.0028
- osmotic coefficient (298.15 K, m1 = 0.8048): 0.9442 ± 0.0028
- osmotic coefficient (298.15 K, m1 = 0.8059): 0.9432 ± 0.0028
- osmotic coefficient (298.15 K, m1 = 1.139): 0.9297 ± 0.0035
- osmotic coefficient (298.15 K, m1 = 1.14): 0.9295 ± 0.0035
- osmotic coefficient (303.15 K, m1 = 0.203): 0.9873 ± 0.0006
- osmotic coefficient (303.15 K, m1 = 0.2037): 0.9872 ± 0.0006
- osmotic coefficient (303.15 K, m1 = 0.3379): 0.9781 ± 0.0011
- osmotic coefficient (303.15 K, m1 = 0.3388): 0.9781 ± 0.0011
- osmotic coefficient (303.15 K, m1 = 0.5346): 0.966 ± 0.0017
- osmotic coefficient (303.15 K, m1 = 0.535): 0.9659 ± 0.0017
- osmotic coefficient (303.15 K, m1 = 0.7489): 0.9539 ± 0.0023
- osmotic coefficient (303.15 K, m1 = 0.7501): 0.9538 ± 0.0023
- osmotic coefficient (303.15 K, m1 = 0.854): 0.9483 ± 0.0026
- osmotic coefficient (303.15 K, m1 = 0.8547): 0.9483 ± 0.0026
- osmotic coefficient (303.15 K, m1 = 1.044): 0.9384 ± 0.0031
- osmotic coefficient (303.15 K, m1 = 1.045): 0.9384 ± 0.0031

Structure (SMILES): CC(N)C(=O)O (stereo not drawn) [DL-2-aminopropanoic acid] + O
- osmotic coefficient (288.15 K, m1 = 0.2159): 0.9497 ± 0.0026
- osmotic coefficient (288.15 K, m1 = 0.2163): 0.9496 ± 0.0026
- osmotic coefficient (288.15 K, m1 = 0.3062): 0.944 ± 0.0027
- osmotic coefficient (288.15 K, m1 = 0.3066): 0.944 ± 0.0027
- osmotic coefficient (288.15 K, m1 = 0.5085): 0.9513 ± 0.0026
- osmotic coefficient (288.15 K, m1 = 0.5093): 0.9514 ± 0.0026
- osmotic coefficient (288.15 K, m1 = 0.6031): 0.9603 ± 0.0024
- osmotic coefficient (288.15 K, m1 = 0.6037): 0.9603 ± 0.0024
- osmotic coefficient (288.15 K, m1 = 0.8076): 0.9837 ± 0.0021
- osmotic coefficient (288.15 K, m1 = 0.8082): 0.9838 ± 0.0021
- osmotic coefficient (288.15 K, m1 = 1.098): 1.01
- osmotic coefficient (293.15 K, m1 = 0.2061): 0.9725 ± 0.0022
- osmotic coefficient (293.15 K, m1 = 0.2068): 0.9724 ± 0.0022
- osmotic coefficient (293.15 K, m1 = 0.3536): 0.9656 ± 0.0023
- osmotic coefficient (293.15 K, m1 = 0.354): 0.9656 ± 0.0023
- osmotic coefficient (293.15 K, m1 = 0.5134): 0.9677 ± 0.0022
- osmotic coefficient (293.15 K, m1 = 0.5145): 0.9677 ± 0.0022
- osmotic coefficient (293.15 K, m1 = 0.8192): 0.9905 ± 0.002
- osmotic coefficient (293.15 K, m1 = 0.8199): 0.9905 ± 0.002
- osmotic coefficient (293.15 K, m1 = 0.9719): 1.007 ± 0.002
- osmotic coefficient (293.15 K, m1 = 0.9725): 1.007 ± 0.002
- osmotic coefficient (293.15 K, m1 = 1.185): 1.029 ± 0.0023
- osmotic coefficient (293.15 K, m1 = 1.186): 1.029 ± 0.0023
- osmotic coefficient (298.15 K, m1 = 0.2238): 0.9972 ± 0.002
- osmotic coefficient (298.15 K, m1 = 0.2243): 0.9954 ± 0.002
- osmotic coefficient (298.15 K, m1 = 0.3134): 0.9976 ± 0.002
- osmotic coefficient (298.15 K, m1 = 0.3135): 0.9972 ± 0.002
- osmotic coefficient (298.15 K, m1 = 0.52): 0.9983 ± 0.002
- osmotic coefficient (298.15 K, m1 = 0.5203): 0.9977 ± 0.002
- osmotic coefficient (298.15 K, m1 = 0.5759): 0.9986 ± 0.002
- osmotic coefficient (298.15 K, m1 = 0.5762): 0.9982 ± 0.002
- osmotic coefficient (298.15 K, m1 = 0.7604): 0.9998 ± 0.002
- osmotic coefficient (298.15 K, m1 = 0.7609): 0.9991 ± 0.002
- osmotic coefficient (298.15 K, m1 = 1.056): 1
- osmotic coefficient (303.15 K, m1 = 0.207): 1.004 ± 0.002
- osmotic coefficient (303.15 K, m1 = 0.2076): 1.004 ± 0.002
- osmotic coefficient (303.15 K, m1 = 0.3362): 1.004 ± 0.002
- osmotic coefficient (303.15 K, m1 = 0.3364): 1.004 ± 0.002
- osmotic coefficient (303.15 K, m1 = 0.5119): 1.004 ± 0.002
- osmotic coefficient (303.15 K, m1 = 0.5129): 1.004 ± 0.002
- osmotic coefficient (303.15 K, m1 = 0.7159): 1.006 ± 0.002
- osmotic coefficient (303.15 K, m1 = 0.7166): 1.006 ± 0.002
- osmotic coefficient (303.15 K, m1 = 0.8218): 1.01 ± 0.002
- osmotic coefficient (303.15 K, m1 = 0.8221): 1.01 ± 0.002
- osmotic coefficient (303.15 K, m1 = 1.038): 1.02
